Measured values: US20140271926A1, “METHODS OF USE OF GLUTAMINE SYNTHETASE INHIBITORS” (CALIFORNIA INSTITUTE OF TECHNOLOGY, priority 2013, published 2014)

Key:
FlagCRBN [1] = target: T1, FlagCRBN (Homo sapiens, UniProt Q96SW2); test: SILAC quantitative mass spectrometry of FlagCRBN immunoprecipitates, thalidomide vs DMSO; assay type: cell-based; conditions: 50 μM thalidomide 4 hours vs DMSO
T1 construct: expressed in transfected cells
Protocol: To identify IMiD-modulated substrates of CRBN, a human embryonic kidney (HEK) 293T cell line was generated that stably expresses CRBN with a Flag tag appended to its amino terminus (^FlagCRBN). ^FlagCRBN cells were grown in medium formulated with isotopically light lysine and arginine (light medium) or in medium formulated with isotopically heavy lysine and arginine (heavy medium). Cells growing in heavy medium were treated with 50 μM thalidomide for 4 hours, whereas cells growing in light medium were treated with DMSO. ^FlagCRBN immunoprecipitates were prepared in parallel, mixed, and analyzed by quantitative mass spectrometry. […] Essentially identical results were obtained in a label swap experiment. […] (Lopez-Girona et al., 2012, supra and Zhu et al. 2011 supra.)
Preparation of ^FlagCRBN for mass spectrometry (MS). SILAC-labeled cultures of the stable cell lines were grown as described Lee et al., 2011, Molecular & Cellular Proteomics, 10: M110 006460,the entire contents of which are herein incorporated by reference. Briefly, HEK293T cells, stably expressing ^FlagCRBN, were cultured in medium formulated with isotopically light lysine and arginine (‘light’ medium) or in medium formulated with isotopically heavy lysine and arginine (‘heavy’ medium). The cells growing in ‘heavy’ medium were treated with thalidomide (a final concentration of 50 μM) for 4 hours, while the cells growing in ‘light’ medium were treated with DMSO. SILAC experiments were repeated after swapping the SILAC labels in which the cells cultured in ‘light’ and ‘heavy’ medium were treated with thalidomide and DMSO, respectively. The ^FlagCRBN immunoprecipitates were prepared, mixed, and analyzed by quantitative mass spectrometry.
MS data analysis. Thermo raw files were processed and searched with MaxQuant (v. 1.4.1.2), as described in Cox et al., 2008, Nat. Biotechnol. 26:1367; and Cox et al., 2011, J. of Proteome Research, 10:1794, the entire contents of both of which are herein incorporated by reference. Trypsin was specified as the digestion enzyme with up to two missed cleavages. Protein N-terminal acetylation (+42.0106) and methionine oxidation (+15.9949) were specified as variable modifications. Carbamidomethylation of cysteine (+57.0215) was specified as a fixed modification. Arg6 ([…]) and Lys8 (+8.0142) were specified as the SILAC labels. Requantification and match between runs were enabled. Precursor ion tolerance was 7 ppm and fragment ion tolerance was 0.5 Da. All human Uniprot entries were searched (148298 sequences, downloaded on 05Dec12) along with a contaminant database containing proteins such as keratin and trypsin (247 sequences). (Apweiler et al., 2013, Nucleic Acids Research, 41: D43, the entire contents of which are herein incorporated by reference.) Additionally, to determine the false discovery rate, a decoy database was constructed by reversing the target database. While no minimum score was specified, the protein and peptide level false discovery rates were fixed at 1% and we required that all proteins reported were identified in both biological replicates by at least two peptides.
Proteins were quantified by first calculating the median of all peptide ratios within each biological replicate and then calculating the mean of the two biological replicate ratios. Only peptides uniquely assignable to the protein group were used for quantification. […] Individual ratio measurement error was estimated using pooled variance and overall ratio standard error was calculated using bootstrap analysis. […] Q-values were calculated from the p-values using the Storey method for calculating false discovery rates as described in Storey et al., 2002, J. Roy Stat. Soc. B., 64:479, the entire contents of which is herein incorporated by reference. A q-value of 0.05 was used as a threshold for significance.

FlagCRBN [2] = target: T1, FlagCRBN; test: FlagCRBN immunoprecipitation from stable HEK293T cells, immunoblot for CRL4CRBN subunits and GS; assay type: cell-based; conditions: FIG. 2
Protocol: To confirm the results of the quantitative mass spectrometry, ^FlagCRBN was immunoprecipitated from the stable HEK293T cell line and immunoblotted for CRL4^CRBN subunits and GS. As expected, thalidomide enhanced recovery of GS but had no effect on binding of DDB1 or CUL4A (FIG. 2). In order to confirm this finding, endogenous proteins expressed in cells were analyzed that are responsive to the therapeutic effects of IMiDs. For this purpose, endogenous CRBN as immunoprecipitated from MM.1S multiple myeloma cells.
Immunoprecipitation. Cells were lysed in immunoprecipitation buffer (10 mM Tris [pH 7.5], 150 mM NaCl, 1% Triton X-100) containing a protease inhibitor cocktail, and immunoprecipitated with the indicated antibodies, such as anti-CRBN antibody for 2-4 hours at 4° C., followed by incubation with protein G sepharose 4 Fast Flow (GE Healthcare) for 1 hour at 4° C. Immunoprecipitated proteins were resolved by SDS/PAGE and analyzed by immunoblotting with the indicated antibodies.

T1 sequence (Q96SW2 whole entry): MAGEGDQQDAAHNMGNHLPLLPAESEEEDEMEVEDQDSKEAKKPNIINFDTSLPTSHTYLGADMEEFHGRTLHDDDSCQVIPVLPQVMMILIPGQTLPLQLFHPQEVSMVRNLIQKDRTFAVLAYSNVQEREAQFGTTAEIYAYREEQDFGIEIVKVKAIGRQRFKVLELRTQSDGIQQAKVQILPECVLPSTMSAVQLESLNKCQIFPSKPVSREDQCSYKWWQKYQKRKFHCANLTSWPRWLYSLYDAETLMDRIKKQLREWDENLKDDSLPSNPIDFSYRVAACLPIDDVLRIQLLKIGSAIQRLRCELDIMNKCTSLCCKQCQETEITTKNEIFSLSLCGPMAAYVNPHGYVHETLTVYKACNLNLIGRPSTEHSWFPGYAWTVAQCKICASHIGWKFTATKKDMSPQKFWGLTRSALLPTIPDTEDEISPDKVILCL

In the case of `O=C1CCC(N2C(=O)c3ccccc3C2=O)C(=O)N1` (stereo not shown) [thalidomide, Thalidomide], the “recovery of FlagCRBN, subunits of CRL4 (CUL4, DDB1, RBX1) and subunits of CSN” value (FlagCRBN [1]; FIG. 1) is reported as “recovered in equal amounts”, the “recovery of glutamine synthetase (GS) in FlagCRBN immunoprecipitates” value (FlagCRBN [1]; FIG. 1) is reported as “recovered in greater amounts” and the “+/−Thalidomide Ratio” value (FlagCRBN [1]; protein ATP5A1) is reported as 0.7541. The “+/−Thalidomide Ratio” value (FlagCRBN [1]; protein ATP5B) was 0.6236, the “+/−Thalidomide Ratio” value (FlagCRBN [1]; protein BAG2) was 0.6303 and the “+/−Thalidomide Ratio” value (FlagCRBN [1]; protein BOLA2) was 0.5989. The “+/−Thalidomide Ratio” value (FlagCRBN [1]; protein C11orf84) was 0.7032, the “+/−Thalidomide Ratio” value (FlagCRBN [1]; protein C12orf23) was 0.6718 and the “+/−Thalidomide Ratio” value (FlagCRBN [1]; protein C22orf28) was 0.7109. The “+/−Thalidomide Ratio” value (FlagCRBN [1]; protein CCT5) was 0.8584, the “+/−Thalidomide Ratio” value (FlagCRBN [1]; protein CCT6A) was 0.8483 and the “+/−Thalidomide Ratio” value (FlagCRBN [1]; protein CCT8) was 0.8368. The “+/−Thalidomide Ratio” value (FlagCRBN [1]; protein CLNS1A) was 0.627, the “+/−Thalidomide Ratio” value (FlagCRBN [1]; protein CMBL) was 0.7463 and the “+/−Thalidomide Ratio” value (FlagCRBN [1]; protein COMT) was 0.5482. For the same compound, the “+/−Thalidomide Ratio” value (FlagCRBN [1]; protein DDX5, DKFZp686J01190) was 0.6321, the “+/−Thalidomide Ratio” value (FlagCRBN [1]; protein DKFZp686K23100, MATR3, DKFZp686K0542) was 0.526 and the “+/−Thalidomide Ratio” value (FlagCRBN [1]; protein FUS) was 0.5807. The “+/−Thalidomide Ratio” value (FlagCRBN [1]; protein GLNS (glutamine synthetase)) was 2.508, the “+/−Thalidomide Ratio” value (FlagCRBN [1]; protein GLUD1, GLUD2) was 0.7935 and the “+/−Thalidomide Ratio” value (FlagCRBN [1]; protein HNRNPA2B1) was 0.4533. For the same compound, the “+/−Thalidomide Ratio” value (FlagCRBN [1]; protein HNRNPAB) was 0.569, the “+/−Thalidomide Ratio” value (FlagCRBN [1]; protein HNRNPC, hCG_1641229, HNRPCL1, HNRNPCL1, LOC440563, LOC649330) was 0.4229 and the “+/−Thalidomide Ratio” value (FlagCRBN [1]; protein HNRNPK, HNRPK) was 0.5905. For the same compound, the “+/−Thalidomide Ratio” value (FlagCRBN [1]; protein HNRNPL) was 0.44, the “+/−Thalidomide Ratio” value (FlagCRBN [1]; protein HNRNPM, ORF, HNRPM) was 0.6977 and the “+/−Thalidomide Ratio” value (FlagCRBN [1]; protein HNRNPU, HNRPU) was 0.7137. The “+/−Thalidomide Ratio” value (FlagCRBN [1]; protein HSP90AA1) was 0.7454, the “+/−Thalidomide Ratio” value (FlagCRBN [1]; protein HSP90AB1) was 0.79 and the “+/−Thalidomide Ratio” value (FlagCRBN [1]; protein IMPDH2) was 0.8138. For the same compound, the “+/−Thalidomide Ratio” value (FlagCRBN [1]; protein IVNS1ABP) was 0.6131, the “+/−Thalidomide Ratio” value (FlagCRBN [1]; protein KIF11) was 0.6737 and the “+/−Thalidomide Ratio” value (FlagCRBN [1]; protein LUC7L2) was 0.7578. For the same compound, the “+/−Thalidomide Ratio” value (FlagCRBN [1]; protein PDIA6) was 0.8515, the “+/−Thalidomide Ratio” value (FlagCRBN [1]; protein PIH1D1) was 0.5153 and the “+/−Thalidomide Ratio” value (FlagCRBN [1]; protein PRPS1) was 0.7264. The “+/−Thalidomide Ratio” value (FlagCRBN [1]; protein PRPS2) was 0.6445, the “+/−Thalidomide Ratio” value (FlagCRBN [1]; protein PUF60) was 0.5471 and the “+/−Thalidomide Ratio” value (FlagCRBN [1]; protein RBM39, DKFZp781C0423, DKFZp686A11192, DKFZp781I1140, DKFZp686C17209) was 0.6182. The “+/−Thalidomide Ratio” value (FlagCRBN [1]; protein RBMX, RBMXL1) was 0.5004, the “+/−Thalidomide Ratio” value (FlagCRBN [1]; protein RIOK1) was 0.6187 and the “+/−Thalidomide Ratio” value (FlagCRBN [1]; protein RPL26, KRBA2, RPL26L1) was 0.698. The “+/−Thalidomide Ratio” value (FlagCRBN [1]; protein RPL27) was 0.7987, the “+/−Thalidomide Ratio” value (FlagCRBN [1]; protein RPL35, LOC154880) was 0.6839 and the “+/−Thalidomide Ratio” value (FlagCRBN [1]; protein RPS3A) was 0.7607. For the same compound, the “+/−Thalidomide Ratio” value (FlagCRBN [1]; protein RPS8) was 0.8186, the “+/−Thalidomide Ratio” value (FlagCRBN [1]; protein RPS25) was 0.7348 and the “+/−Thalidomide Ratio” value (FlagCRBN [1]; protein RPSA, RPSAP58, LAMR1P15) was 0.8005. The “+/−Thalidomide Ratio” value (FlagCRBN [1]; protein RUVBL1) was 0.7099, the “+/−Thalidomide Ratio” value (FlagCRBN [1]; protein RUVBL2) was 0.6927 and the “+/−Thalidomide Ratio” value (FlagCRBN [1]; protein SF3A3) was 0.5959. The “+/−Thalidomide Ratio” value (FlagCRBN [1]; protein SFRS11, SRSF11) was 0.573, the “+/−Thalidomide Ratio” value (FlagCRBN [1]; protein SNRPD1) was 0.6168 and the “+/−Thalidomide Ratio” value (FlagCRBN [1]; protein SNRPD3) was 0.6583. The “+/−Thalidomide Ratio” value (FlagCRBN [1]; protein SNRPF) was 0.6071, the “+/−Thalidomide Ratio” value (FlagCRBN [1]; protein SNRPN, SNRPB) was 0.6605 and the “+/−Thalidomide Ratio” value (FlagCRBN [1]; protein SPIN1) was 0.6689. For the same compound, the “+/−Thalidomide Ratio” value (FlagCRBN [1]; protein SRSF3, SFRS3) was 0.651, the “+/−Thalidomide Ratio” value (FlagCRBN [1]; protein STK38) was 0.7445 and the “+/−Thalidomide Ratio” value (FlagCRBN [1]; protein TCP1) was 0.8927. For the same compound, the “+/−Thalidomide Ratio” value (FlagCRBN [1]; protein TRIM21) was 0.7125, the “+/−Thalidomide Ratio” value (FlagCRBN [1]; protein TXN) was 0.7037 and the “+/−Thalidomide Ratio” value (FlagCRBN [1]; protein U2AF2) was 0.6123. The “+/−Thalidomide Ratio” value (FlagCRBN [1]; protein VCP, DKFZp434K0126) was 0.7702, the “+/−Thalidomide Ratio” value (FlagCRBN [1]; protein WDR77) was 0.5895 and the “binding of DDB1 or CUL4A to FlagCRBN” value (FlagCRBN [2]) was “no effect”. For the same compound, the “recovery of GS with FlagCRBN” value (FlagCRBN [2]) was “enhanced”.
